From patent US20240174645A1, “COMPOUND, PRODUCTION METHOD THEREFOR, COMPLEX, AND SHORT WAVELENGTH INFRARED FLUORESCENT AGENT” (RIKEN, priority 2021, published 2024) come the findings set out here.

This data set deals with HeLa cell. As to the kind of experiment: Cytotoxicity test (MTT, cell viability). Type of data set: cell-based. The conditions noted are these: HeLa cells, concentrations of 1 nM to 100 nM, cultured for 6 hours, 24 hours, or 48 hours. On the procedure: HeLa cell was seeded on a 96-well plate at 6×10^3 per well and was cultured overnight. Aqueous solutions of the compound 4 at concentrations of 0.1 nM, 1 nM, 10 nM and 100 nM were prepared as test agents, and the test agent at each concentration was added to the well, and HeLa cells were further cultured for 6, 24, and 48 hours. After the culturing for each of the above hours, MTT (3-(4,5-di-methylthiazol-2-yl)-2,5-diphenyltetrazolium bromide) reagent was added to the well, and the resultant product was further cultured for 2 hours.
After the culturing for 2 hours, a solubilizing solution was added to the well, and formazan produced in the living cell was dissolved by pipetting. By sealing the 96-well plate and allowing the resultant product to stand in an incubator overnight at 37° C., formazan was completely solubilized. A plate reader was used to measure 570 nm (formazan dye) and 650 nm (background), and the cell viability of the well to which the test agent of each concentration was added was determined, with the cell viability of a well without the addition of a test agent being 100%.
Culturing of HeLa cells and determination of cell viability of the well were performed as in the cytotoxicity test for the compound 4, except that a test agent was prepared using the compound 10 instead of the compound 4.

Each structure is given as a SMILES string.

In the case of `CC1(C)C(/C=C/C=C/C=C/C=C/C=C/C=C2/N(CCCCS(=O)(=O)O)c3ccc4ccccc4c3C2(C)C)=[N+](CCCCS(=O)(=O)[O-])c2ccc3ccccc3c21` [compound 10, ICG-C11], the “cytotoxicity (cell viability)” value is “did not exhibit cytotoxicity”.
